In PMC12682947, “Identification of New KCNT1‐Epilepsy Drugs by In Silico, Cell, and Drosophila Modeling” (Annals of Neurology, 2025):
Structures can show the parent of a compound that is named as a salt.

System: Drosophila mutant KCNT1 lines (G288S, R398Q, R928C)
Assay: Bang-sensitive behavioral seizure assay, statements for all three Drosophila mutant KCNT1 lines
Assay type: in vivo, Drosophila melanogaster
Conditions: for effect on seizure activity (in words): drug in food, 1 nM to 1 μM, each of the three mutant lines
Excerpt: The Drosophila melanogaster lines carrying the WT human KCNT1 transgene (NM_020822_3) or KCNT1 mutant G288S, R398Q or R928C transgene placed downstream of the yeast UAS promoter, have been described previously.[11] WT or mutant human UAS‐KCNT1 flies were crossed to flies expressing the GAL4 transcriptional activator under the control of the GAD1 promoter (GABAergic driver, Bloomington stock number 51630 P2) to drive expression of KCNT1 in GABAergic neurons, involved in neuronal inhibition.[11]
The bang‐sensitive behavioral assay (also known as the banging assay) was used to test for the presence of a seizure phenotype in Drosophila.[11], [30] Experiments were performed and scored, as previously described,[11] with a minimum of 50 Drosophila tested for each genotype and drug concentration.
Four drugs were selected for in vivo analysis to determine their effects on the seizure phenotypes in transgenic Drosophila lines with human mutant KCNT1 channels. Bepridil, a nonselective KCNT1 inhibitor was included for comparison. Drosophila food with and without drugs was prepared as previously described.[11] All chemicals were obtained from Sigma‐Aldrich (Gillingham, UK) apart from antrafenine hydrochloride (Toronto Research Chemicals, Canada) and regorafenib (USP, Germany).
Drosophila crosses were set up, and the resulting embryos were collected, as previously described.[11] A range of concentrations of each drug dissolved in Drosophila food, between 0.001 μM and 1 μM, were used in the experiments. Multiple replicates were performed for each dosage of the drugs and controls. Controls were vehicle controlled (VC), which was the normal food with just the solvent ethanol present (1 μl/1 ml) in the Drosophila food, and normal food (NF) control where no drug or solvent (ethanol) was added in the Drosophila food.
In all experiments, experimenters were not blinded to variants or treatments, nor were samples randomly assigned to groups. Sample sizes were not calculated in advance and no data were excluded from the analysis. Data were analyzed using GraphPad Prism 9 software (San Diego, CA, USA). All values are reported as mean ± standard error of the mean (SEM). All data passed normality and lognormality Shapiro–Wilk tests, determined by GraphPad Prism 9. In the experiments analyzing the effects of drugs in Drosophila, statistical significance of differences between groups was determined using Brown‐Forsythe and Welch's analysis of variance (ANOVA) tests (Supplementary Table S3), assuming non‐equal SDs, followed by Dunnett's multiple comparisons tests (GraphPad Prism 9). The results of the Dunnett's multiple comparisons tests are shown in Supplementary Table S4, where “N” represents independent trials using independent fly crosses, with the total number of flies for each condition shown in brackets.

Structure (SMILES)	effect on seizure activity (in words)	viability of adult flies (1 μM in food)
O=C(OCCN1CCN(c2cccc(C(F)(F)F)c2)CC1)c1ccccc1Nc1ccnc2cc(C(F)(F)F)ccc12 [antrafenine]	significantly reduce the seizure activity	
CC(C)c1c(C(=O)Nc2ccccc2)c(-c2ccccc2)c(-c2ccc(F)cc2)n1CC[C@@H](O)C[C@@H](O)CC(=O)O [atorvastatin]	did not show a significant effect	reduced viability
Cc1c(O)cccc1C(=O)N[C@@H](CSc1ccccc1)[C@H](O)CN1C[C@H]2CCCC[C@H]2C[C@H]1C(=O)NC(C)(C)C [nelfinavir mesylate]	significantly reduce the seizure activity	
CNC(=O)c1cc(Oc2ccc(NC(=O)Nc3ccc(Cl)c(C(F)(F)F)c3)c(F)c2)ccn1 [regorafenib]	did not show a significant effect	
